Experimental data taken from patent US20220184071A1, “GEPOTIDACIN FOR USE IN THE TREATMENT OF BACTERIAL URINARY TRACT INFECTIONS” (GlaxoSmithKline Intellectual Property Development Limited, priority 2019, published 2022).
Converted amounts (≈) assume the structure as drawn. “And” between values parts separate entries of the source, which are not always exact repeats. Equal values may be shown once. Read-outs that look alike come from different tables or passages of the source.

How the values were obtained:
[1] = Plasma and urine pharmacokinetics, phase IIa study in women with acute uUTI; type: in vivo, human; settings: for Cmax: read-out: Plasma Cmax, Geometric Mean (% CVb); for AUC: po, uUTI patients, read-out: urine AUC[0-tau]
Experimental: Bronchoalveolar lavage samples were collected to determine gepotidacin exposures in ELF and AM following a single 1000 mg IV infusion over 2 hours to healthy subjects. Saliva exposure was assessed in healthy volunteers following 1500 mg oral single dose. Gepotidacin exposures in urine was assessed in women with acute uUTI following 1500 mg BID oral doses for 5 days.
(§1) This phase IIa single center study evaluated the safety, tolerability, pharmacokinetics, and efficacy of oral gepotidacin 1500 mg BID for 5 days in female subjects with acute cystitis. Clean catch mid-stream urine specimens were obtained for quantitative culture by standard methods. Urine samples were taken from all participants pre-treatment (baseline) and at all post-baseline visits. All urine samples were sent to a central laboratory (PPD Global Clinical Laboratories, Highland Heights, Ky., USA) for Gram stain, quantitative culture, pathogen identification and susceptibility testing. See FIG. 1 for participant disposition and study outline.
Serial blood and urine PK sampling were performed for the first dose of study treatment on Day 1 and for the time-matched dose on Day 4. Participants took all doses of gepotidacin with food and remained in the clinic to complete a total of 10 doses. Participants were instructed to return for the TOC (Day 10 to 13) and Follow-up (Day 28±3) Visits.
(§2) For pharmacokinetic assessments, serial blood and urine samples for the assessment of gepotidacin PK concentrations were collected out to 12 hours post dose (T) following the morning dose on Days 1 and 4. CT (trough) concentrations were collected on Days 1-5. PK concentrations of gepotidacin in plasma and urine were measured using a validated LC-MS/MS bio-analytical assay.

C. koseri = test: Phase IIa PK/PD and microbiological response by uropathogen; type: in vivo, human; settings: Participant 1
Experimental: as §1
(§3) Susceptibility testing by CLSI broth microdilution and gradient diffusion (fosfomycin only) was conducted (CLSI, 2015, Methods for dilution antimicrobial susceptibility tests for bacteria that grow aerobically; approved standard-tenth edition; and CLSI, 2018. Performance Standards for Antimicrobial Susceptibility Testing; Twenty-seventh Informational Supplement M100-S28). Inclusion in the microbiological intent-to-treat population (micro-ITT), required growth of a qualifying baseline uropathogen (≥10^5 CFU/mL). See FIG. 2 for the baseline algorithm.
as §2

E. coli = test: as above; type: in vivo, human
Experimental: as §1, §3, §2

K. pneumoniae = test: as above; type: in vivo, human; settings: Participant 7
Experimental: as §1, §3, §2

S. saprophyticus = test: as above; type: in vivo, human; settings: Participant 8
Experimental: as §1, §3, §2

S. anginosus = test: MIC by CLSI broth microdilution, Example 5 second study; type: cell-based; settings: Streptococcus anginosus; 10 isolates, 2013-2014
Description: (§4) A second study tested gepotidacin by CLSI broth microdilution against bacterial isolates collected from patients with acute bacterial skin and soft tissue infections between 2013-2014. Amoxicillin/clavulanic acid, linezolid, fusidic acid, ceftriaxone, ceftaroline, vancomycin, penicillin, quinupristin/dalfopristin, erythromycin, clindamycin, meropenem, tetracycline, chloramphenicol, flucloxacillin, telavancin, daptomycin, trimethoprim/sulfamethoxazole, gentamicin, levofloxacin, tigecycline and cefuroxime were included as comparators. MICs were determined by broth microdilution according to CLSI methods.

viridans streptococci = test: as above; type: cell-based; settings: 19 isolates, 2013-2014
Description: as §4

SMILES: O=c1ccc2ncc(=O)n3c2n1C[C@H]3CN1CCC(NCc2cc3c(cn2)OCCC3)CC1 [gepotidacin, (2R)-2-({4-[(3,4-dihydro-2H-pyrano[2,3-c]pyridin-6-ylmethyl)amino]-1-piperidinyl}methyl)-1,2-dihydro-3H,8H-2a,5,8a-triazaacenaphthylene-3,8-dione]
- accumulation in plasma following BID dosing (based on AUC) ([1]; 1500 mg BID oral): 1.4 fold
- dose excreted in urine over the 12-hour dosing interval ([1]; Day 1): Approximately 20%
- Plasma CT, Geometric Mean (% CVb) ([1]; Day 4): 0.851 (41.1) [n = 21] μg/mL
- Urine CT, Geometric Mean (% CVb) ([1]; Day 4): 327 (248.7) [n = 21] μg/mL
- dose excreted in urine over the 12-hour dosing interval ([1]; Day 4): 31%
- Steady state attained by ([1]; based on trough plasma concentrations): ≤ 3 days
- concentration at 12 h ([1]; female, human, in vivo, over the 12-hour dosing interval, 1500 mg BID oral, read-out: minimum / steady-state trough urine concentrations (remained above a MIC of)): > 4000 ng/mL
- AUC(0-t) ([1]; female, human, plasma, oral, 1500 mg, Day 1, read-out: Plasma AUC(0-T), Geometric Mean (% CVb)): 20.2 µg·h/mL
- Cmax ([1]; female, human, plasma, oral, 1500 mg, Day 1): 5890 ng/mL
- AUC(0-t) ([1]; female, human, plasma, oral, 1500 mg, Day 4, read-out: Plasma AUC(0-T), Geometric Mean (% CVb)): 29.3 µg·h/mL
- Cmax ([1]; female, human, plasma, oral, 1500 mg, Day 4): 8440 ng/mL
- Tmax ([1]; female, human, plasma, oral, 1500 mg, plasma, Day 1, read-out: median Tmax): 1.5 h
- Tmax ([1]; female, human, plasma, oral, 1500 mg, plasma, Day 4, read-out: median Tmax): 1.92 h
- Tmax ([1]; female, human, plasma, oral, 1500 mg, plasma, Days 1 and 4, read-out: median Tmax values): 1.5 to 1.92 h
- half-life ([1]; female, human, plasma, oral, 1500 mg, read-out: effective elimination half-life (converted)): 6.6 h
- AUC(0-t) ([1]; female, human, urine, oral, 1500 mg, Day 1, read-out: Urine AUC(0-T), Geometric Mean (% CVb)): 3740 µg·h/mL
- AUC(0-t) ([1]; female, human, urine, oral, 1500 mg, Day 4, read-out: Urine AUC(0-T), Geometric Mean (% CVb)): 5970 µg·h/mL
- AUC(0-t) ([1]; female, human, urine, oral, 1500 mg, steady state, Day 4, read-out: Urinary AUC(0-24)): 11900 µg·h/mL
- Kp ([1]; female, human, urine, oral, 1500 mg, read-out: Steady-state urine exposures (AUC[0-24]) exceeded free plasma exposures by): ~300
- AUC ([1]; female, human, urine, 1500 mg, Day 1, 1500 mg BID oral): 3740 µg·h/mL
- AUC ([1]; female, human, urine, 1500 mg, Day 4, 1500 mg BID oral): 5970 µg·h/mL
- Urine Ctau ([1]; from Day 3 onwards, 1500 mg BID oral): 322 to 352 µg/mL
- renal excretion ([1]; healthy subjects (comparison)): 7.5 % of dose
- free plasma AUC(0-24) ([1]; steady state, Day 4): 39.4 µg·h/mL and 39.3 µg·h/mL
- renal excretion ([1]; uUTI participants): 20 % of dose
- Microbiological success at Follow-up (C. koseri): Failure
- Microbiological success at TOC (C. koseri): Success
- Microbiological success at Follow-up (E. coli; Participant 2): Success
- Microbiological success at TOC (E. coli; Participant 2): Success
- Microbiological success at Follow-up (E. coli; Participant 3): Success
- Microbiological success at TOC (E. coli; Participant 3): Success
- Microbiological success at Follow-up (E. coli; Participant 4): Success
- Microbiological success at TOC (E. coli; Participant 4): Success
- Microbiological success at TOC (E. coli; Participant 5, failure due to an out of stability urine specimen): Failure^b
- Microbiological success at Follow-up (E. coli; Participant 5, failures at TOC considered failures at Follow-up): Failure^c
- Microbiological success at Follow-up (E. coli; Participant 6, MDR): Success
- Microbiological success at TOC (E. coli; Participant 6, MDR): Success
- Microbiological success at Follow-up (K. pneumoniae): Success
- Microbiological success at TOC (K. pneumoniae): microbiological success
- Microbiological success at TOC (K. pneumoniae; listed as GEP): Success
- Microbiological success at Follow-up (S. saprophyticus): Success
- Microbiological success at TOC (S. saprophyticus): Success
- MIC90 (S. anginosus): 1 µg/mL (≈ 2.23 µM)
- MIC90 (viridans streptococci): 0.5 µg/mL (≈ 1.11 µM)
